Data from PMC9194863, “A novel small-molecule selective activator of homomeric GIRK4 channels” (The Journal of Biological Chemistry, 2022).
Positions count from the first letter of the chain named.

What was measured:
Assay in all cases: two-electrode voltage clamp, Xenopus oocytes
Format in all cases: cell-based
[1] = biological target: T1, GIRK2∗ (GIRK2:E152D) (Mus musculus, UniProt P48542, I82L/E152D); conditions: activator, high potassium ND96K
T1 construct: gene Kcnj6; GIRK2 E152D in pXOOM vector, homotetramer, expressed in Xenopus laevis oocytes
T1 sequence (P48542 1-425 I82L/E152D): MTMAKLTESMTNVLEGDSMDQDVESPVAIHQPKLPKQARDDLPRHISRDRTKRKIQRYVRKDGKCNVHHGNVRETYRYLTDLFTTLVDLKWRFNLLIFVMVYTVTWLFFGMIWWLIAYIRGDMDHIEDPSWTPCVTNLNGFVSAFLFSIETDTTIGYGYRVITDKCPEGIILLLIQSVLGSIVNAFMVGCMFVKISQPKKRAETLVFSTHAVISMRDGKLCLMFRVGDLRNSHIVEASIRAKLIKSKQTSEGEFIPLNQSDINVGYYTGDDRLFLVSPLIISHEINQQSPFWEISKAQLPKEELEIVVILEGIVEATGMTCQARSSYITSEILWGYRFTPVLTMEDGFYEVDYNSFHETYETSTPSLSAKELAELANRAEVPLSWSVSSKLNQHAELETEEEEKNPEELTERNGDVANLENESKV

[2] = biological target: T2, GIRK4 homomeric channel (GIRK4, G4) (Homo sapiens, UniProt P48544, L77I); conditions: activator, high potassium ND96K
T2 construct: gene KCNJ5; full-length GIRK4 in pGEMSH vector, homotetramer, expressed in Xenopus laevis oocytes
T2 sequence (P48544 1-419 L77I): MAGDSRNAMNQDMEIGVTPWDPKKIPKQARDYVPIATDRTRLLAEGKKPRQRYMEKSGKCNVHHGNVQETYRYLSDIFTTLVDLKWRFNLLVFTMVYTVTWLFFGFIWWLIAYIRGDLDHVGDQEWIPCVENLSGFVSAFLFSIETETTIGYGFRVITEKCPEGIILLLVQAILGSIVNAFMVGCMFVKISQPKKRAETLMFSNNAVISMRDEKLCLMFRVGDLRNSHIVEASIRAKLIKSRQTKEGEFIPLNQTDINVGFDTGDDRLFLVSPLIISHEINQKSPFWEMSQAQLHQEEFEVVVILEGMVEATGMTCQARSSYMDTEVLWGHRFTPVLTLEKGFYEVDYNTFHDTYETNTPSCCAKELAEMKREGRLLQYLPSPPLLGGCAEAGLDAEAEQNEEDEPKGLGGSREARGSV

[3] = biological target: T3, GIRK2∗ (GIRK2:E152D) (Mus musculus, UniProt P48542, T80S/I82L/E152D); conditions: activator, high potassium ND96K
T3 construct: gene Kcnj6; GIRK2 E152D in pXOOM vector, homotetramer, expressed in Xenopus laevis oocytes
T3 sequence (P48542 1-425 T80S/I82L/E152D): T1 sequence (P48542 1-425 I82L/E152D) with T80S

[4] = biological target: T4, GIRK4 homomeric channel (GIRK4, G4) (Homo sapiens, UniProt P48544, L90A); conditions: activator, high potassium ND96K
T4 construct: gene KCNJ5; full-length GIRK4 in pGEMSH vector, homotetramer, expressed in Xenopus laevis oocytes
T4 sequence (P48544 1-419 L90A): T2 sequence (P48544 1-419 L77I) with I77L, L90A

[5] = biological target: T5, GIRK4 homomeric channel (GIRK4, G4) (Homo sapiens, UniProt P48544, F181A); conditions: activator, high potassium ND96K
T5 construct: gene KCNJ5; full-length GIRK4 in pGEMSH vector, homotetramer, expressed in Xenopus laevis oocytes
T5 sequence (P48544 1-419 F181A): T2 sequence (P48544 1-419 L77I) with I77L, F181A

[6] = biological target: T6, GIRK4 homomeric channel (GIRK4, G4) (Homo sapiens, UniProt P48544, G247R); conditions: activator, high potassium ND96K
T6 construct: gene KCNJ5; full-length GIRK4 in pGEMSH vector, homotetramer, expressed in Xenopus laevis oocytes
T6 sequence (P48544 1-419 G247R): T2 sequence (P48544 1-419 L77I) with I77L, G247R

[7] = biological target: T7, GIRK4 homomeric channel (GIRK4, G4) (Homo sapiens, UniProt P48544, S75T); conditions: activator, high potassium ND96K
T7 construct: gene KCNJ5; full-length GIRK4 in pGEMSH vector, homotetramer, expressed in Xenopus laevis oocytes
T7 sequence (P48544 1-419 S75T): T2 sequence (P48544 1-419 L77I) with S75T, I77L

[8] = biological target: T8, GIRK4 homomeric channel (GIRK4, G4) (Homo sapiens, UniProt P48544)
T8 construct: gene KCNJ5; full-length GIRK4 in pGEMSH vector, homotetramer, expressed in Xenopus laevis oocytes
T8 sequence (P48544 1-419): T2 sequence (P48544 1-419 L77I) with I77L

[9] = biological target: T9, GIRK4 homomeric channel (GIRK4, G4) (Homo sapiens, UniProt P48544, I177V); conditions: activator, high potassium ND96K
T9 construct: gene KCNJ5; full-length GIRK4 in pGEMSH vector, homotetramer, expressed in Xenopus laevis oocytes
T9 sequence (P48544 1-419 I177V): T2 sequence (P48544 1-419 L77I) with I77L, I177V

[10] = biological target: T10, GIRK4 homomeric channel (GIRK4, G4) (Homo sapiens, UniProt P48544, S75A); conditions: activator, high potassium ND96K
T10 construct: gene KCNJ5; full-length GIRK4 in pGEMSH vector, homotetramer, expressed in Xenopus laevis oocytes
T10 sequence (P48544 1-419 S75A): T2 sequence (P48544 1-419 L77I) with S75A, I77L

COc1ccc(C(=O)CC2(O)C(=O)N(Cc3cccc4ccccc34)c3ccccc32)cc1OC (stereo not shown) [3hi2one-G4, 3-[2-(3,4-dimethoxyphenyl)-2-oxoethyl]-3-hydroxy-1-(1-naphthylmethyl)-1,3-dihydro-2H-indol-2-one]
current at 30 μM [1]: GIRK2∗:I82L and GIRK2∗:T80S/I82L but not GIRK2:T80S could be activated by 3hi2one-G4
I/Ibasal at 30 μM [2]: GIRK4:I177V, GIRK4:F181A, and GIRK4:I190A showed reduced 3hi2one-G4–induced currents
current at 30 μM [3]: GIRK2∗:I82L and GIRK2∗:T80S/I82L but not GIRK2:T80S could be activated by 3hi2one-G4
I/Ibasal at 30 μM [4]: GIRK4:I177V, GIRK4:F181A, and GIRK4:I190A showed reduced 3hi2one-G4–induced currents
I/Ibasal at 30 μM [5]: GIRK4:I177V, GIRK4:F181A, and GIRK4:I190A showed reduced 3hi2one-G4–induced currents
current at 30 μM [6]: GIRK4:G247R, which is functional, was robustly activated by 3hi2one-G4
I/Ibasal at 30 μM [7]: whereas a Thr mutation significantly but partially affected the compound’s effectiveness
EC50 [8]: 12.7 µM
I/Ibasal at 30 μM [9]: GIRK4:I177V, GIRK4:F181A, and GIRK4:I190A showed reduced 3hi2one-G4–induced currents
I/Ibasal at 30 μM [10]: Mutation of residue S75 to Ala did not yield a significant change in the ability
